Results on 35 compounds are retold here after patent publication US20190151312A1, “HEPARAN SULFATE BIOSYNTHESIS INHIBITORS FOR THE TREATMENT OF DISEASES” (BioMarin Pharmaceutical Inc., priority 2014, published 2019).

One test concerns GM01896 cells (MPS II dermal fibroblasts). Briefly: Assay 1: MPS cellular assay, MPS II (heparan sulfate disaccharide biomarkers by LC-MS). It is filed as cell-based, human. The following applies: Assay 1 for MPS II, heparan sulfate disaccharide biomarkers (I2a4, I2a6, I2S0 and/or I2S6), read-out: IC50 Range. Summed up: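 Heparan sulfate disaccharide biomarkers quantified by LC-MS after heparinase I/II/III digestion and isotopic aniline labelling, using GM01896 MPS II fibroblasts exposed to compound (at or below 30 μM, 4-21 days). Values given as IC50 by curve fitting; cell viability checked with alamar blue or ATP.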
As for `Cn1nc2ccc(Nc3cc(-c4ccc5cnn(C)c5c4)nc(N4CCOCC4)n3)cc2n1` [[6-(1-methyl(1H-indazol-6-yl))-2-morpholin-4-ylpyrimidin-4-yl](2-methyl(2-hydrobenzotriazol-5-yl))amine], the IC50 (as a rule, the point on the concentration scale where inhibition reaches its midpoint) was 1000 to 5000 nM. `Cn1ncc2ccc(-c3cc(Nc4ccc(-n5cccn5)cc4)nc(N4CCOCC4)n3)cc21` [[6-(1-methyl(1H-indazol-6-yl))-2-morpholin-4-ylpyrimidin-4-yl](4-pyrazolylphenyl)amine]: the IC50 is less than 500 nM.

The same test, now with this note: Homo sapiens, Fibroblast, Assay 1 for MPS II, heparan sulfate disaccharide biomarkers (I2a4, I2a6, I2S0 and/or I2S6), read-out: IC50 Range.
Consider `Cc1nn(C)c2cc(-c3cc(Nc4ccc(-c5nnc(C(C)C)[nH]5)cc4)nc(N4CCOCC4)n3)ccc12` [[6-(1,3-dimethyl(1H-indazol-6-yl))-2-morpholin-4-ylpyrimidin-4-yl]{4-[5-(methylethyl)(4H-1,2,4-triazol-3-yl)]phenyl}amine], for which the IC50 was less than 500 nM. For the compound `Cc1nn(C)c2cc(-c3cc(Nc4ccc(-c5nnc(C(F)(F)F)[nH]5)cc4)nc(N4CCOCC4)n3)ccc12` [[6-(1,3-dimethyl(1H-indazol-6-yl))-2-morpholin-4-ylpyrimidin-4-yl]{4-[5-(trifluoromethyl)(4H-1,2,4-triazol-3-yl)]phenyl}amine], the half-maximal inhibitory concentration (IC50) lay in the range of 1000 to 5000 nM. For the compound `Cc1nn(C)c2cc(-c3cc(Nc4ccc(-c5ncc(C(F)(F)F)[nH]5)cc4)nc(N4CCOCC4)n3)ccc12` [[6-(1,3-dimethyl(1H-indazol-6-yl))-2-morpholin-4-ylpyrimidin-4-yl]{4-[5-(trifluoromethyl)imidazol-2-yl]phenyl}amine], the concentration for half-maximal inhibition (IC50) lay in the range of 500 to 1000 nM. Same read-out and setting: the value for `Cc1nn(C)c2cc(-c3cc(Nc4ccc(-n5nccn5)cc4)nc(N4CCOCC4)n3)cnc12` [[6-(1,3-dimethylpyrazolo[4,5-b]pyridin-6-yl)-2-morpholin-4-ylpyrimidin-4-yl](4-(1,2,3-triazol-2-yl)phenyl)amine] was less than 500 nM; that for `Cc1nn(C)c2cc(-c3cc(Nc4ccc(Cl)cc4)nc(N4CCOCC4)n3)cnc12` [[6-(1,3-dimethylpyrazolo[4,5-b]pyridin-6-yl)-2-morpholin-4-ylpyrimidin-4-yl](4-chlorophenyl)amine] was 500 to 1000 nM; that for `Cc1nn(C)c2nc(-c3cc(Nc4ccc(Cl)cc4)nc(N4CCOCC4)n3)ccc12` [[6-(1,3-dimethylpyrazolo[4,5-e]pyridin-6-yl)-2-morpholin-4-ylpyrimidin-4-yl](4-chlorophenyl)amine] was 1000 to 5000 nM.

As to `Cc1nn(C)c2cc(-c3cc(Nc4ccc(Cl)cc4)nc(N4CCOCC4)n3)ncc12` [[6-(1,3-dimethylpyrazolo[5,4-d]pyridin-6-yl)-2-morpholin-4-ylpyrimidin-4-yl](4-chlorophenyl)amine], the concentration for half-maximal inhibition (IC50) is less than 500 nM. The same measure, in the same setting: under `Cc1ccc(Nc2cc(-c3ccc4c(cnn4C)c3)nc(N3CCOCC3)n2)cc1` [[6-(1-methyl(1H-indazol-5-yl))-2-morpholin-4-ylpyrimidin-4-yl](4-methylphenyl)amine] stands 1000 to 5000 nM; under `Cc1c(C)n(C)c2cc(Nc3cc(-c4ccc5cnn(C)c5c4)nc(N4CCOCC4)n3)ccc12` [[6-(1-methyl(1H-indazol-6-yl))-2-morpholin-4-ylpyrimidin-4-yl](1,2,3-trimethylindol-6-yl)amine], 1000 to 5000 nM; under `Cn1cnc2cc(Nc3cc(-c4ccc5cnn(C)c5c4)nc(N4CCOCC4)n3)ccc21` [[6-(1-methyl(1H-indazol-6-yl))-2-morpholin-4-ylpyrimidin-4-yl](1-methylbenzimidazol-5-yl)amine], 1000 to 5000 nM. The same measure, in the same setting: under `Cn1cnc2ccc(Nc3cc(-c4ccc5cnn(C)c5c4)nc(N4CCOCC4)n3)cc21` [[6-(1-methyl(1H-indazol-6-yl))-2-morpholin-4-ylpyrimidin-4-yl](1-methylbenzimidazol-6-yl)amine] stands 500 to 1000 nM.

Turning to `Cn1ncc2ccc(-c3cc(Nc4ccc5c(c4)nnn5C)nc(N4CCOCC4)n3)cc21` [[6-(1-methyl(1H-indazol-6-yl))-2-morpholin-4-ylpyrimidin-4-yl](1-methylbenzotriazol-5-yl)amine], the half-inhibitory concentration (IC50) was 1000 to 5000 nM. The same measure, in the same setting: the value for `Cn1ncc2ccc(-c3cc(Nc4ccc5nnn(C)c5c4)nc(N4CCOCC4)n3)cc21` [[6-(1-methyl(1H-indazol-6-yl))-2-morpholin-4-ylpyrimidin-4-yl](1-methylbenzotriazol-6-yl)amine] was 1000 to 5000 nM; that for `Cn1ccc2cc(Nc3cc(-c4ccc5cnn(C)c5c4)nc(N4CCOCC4)n3)ccc21` [[6-(1-methyl(1H-indazol-6-yl))-2-morpholin-4-ylpyrimidin-4-yl](1-methylindol-5-yl)amine] was 1000 to 5000 nM. `Cn1ccc2ccc(Nc3cc(-c4ccc5cnn(C)c5c4)nc(N4CCOCC4)n3)cc21` [[6-(1-methyl(1H-indazol-6-yl))-2-morpholin-4-ylpyrimidin-4-yl](1-methylindol-6-yl)amine]: the IC50 is less than 500 nM. Still for that read-out and setting: under `Cn1cc2cc(Nc3cc(-c4ccc5cnn(C)c5c4)nc(N4CCOCC4)n3)ccc2n1` [[6-(1-methyl(1H-indazol-6-yl))-2-morpholin-4-ylpyrimidin-4-yl](2-methyl(2H-indazol-5-yl))amine] stands 1000 to 5000 nM; under `Cn1cc2ccc(Nc3cc(-c4ccc5cnn(C)c5c4)nc(N4CCOCC4)n3)cc2n1` [[6-(1-methyl(1H-indazol-6-yl))-2-morpholin-4-ylpyrimidin-4-yl](2-methyl(2H-indazol-6-yl))amine], 1000 to 5000 nM. As to `Cn1ncc2ccc(-c3cc(Nc4cccc(-c5ncco5)c4)nc(N4CCOCC4)n3)cc21` [[6-(1-methyl(1H-indazol-6-yl))-2-morpholin-4-ylpyrimidin-4-yl](3-(1,3-oxazol-2-yl)phenyl)amine], the IC50 lay in the range of 1000 to 5000 nM. Same read-out and setting: the value for `Cn1ncc2ccc(-c3cc(Nc4ccc(-n5nccn5)cc4)nc(N4CCOCC4)n3)cc21` [[6-(1-methyl(1H-indazol-6-yl))-2-morpholin-4-ylpyrimidin-4-yl](4-(1,2,3-triazol-2-yl)phenyl)amine] was less than 500 nM.

Regarding `Cn1ncc2ccc(-c3cc(Nc4ccc(-c5ncon5)cc4)nc(N4CCOCC4)n3)cc21` [[6-(1-methyl(1H-indazol-6-yl))-2-morpholin-4-ylpyrimidin-4-yl](4-(1,2,4-oxadiazol-3-yl)phenyl)amine], the half-maximal inhibitory concentration (IC50) was in the range of 500 to 1000 nM. Same read-out and setting: the value for `Cn1ncc2ccc(-c3cc(Nc4ccc(-c5nc[nH]n5)cc4)nc(N4CCOCC4)n3)cc21` [[6-(1-methyl(1H-indazol-6-yl))-2-morpholin-4-ylpyrimidin-4-yl](4-(1,2,4-triazolyl)phenyl)amine] was 500 to 1000 nM. `Cn1ncc2ccc(-c3cc(Nc4ccc(-c5ncco5)cc4)nc(N4CCOCC4)n3)cc21` [[6-(1-methyl(1H-indazol-6-yl))-2-morpholin-4-ylpyrimidin-4-yl](4-(1,3-oxazol-2-yl)phenyl)amine]: the IC50 lay within 500 to 1000 nM. Still for that read-out and setting: under `Cn1ncc2ccc(-c3cc(Nc4ccc(-c5cocn5)cc4)nc(N4CCOCC4)n3)cc21` [[6-(1-methyl(1H-indazol-6-yl))-2-morpholin-4-ylpyrimidin-4-yl](4-(1,3-oxazol-4-yl)phenyl)amine] stands less than 500 nM; under `Cn1ncc2ccc(-c3cc(Nc4ccc(C5=NCCO5)cc4)nc(N4CCOCC4)n3)cc21` [[6-(1-methyl(1H-indazol-6-yl))-2-morpholin-4-ylpyrimidin-4-yl](4-(1,3-oxazolin-2-yl)phenyl)amine], 1000 to 5000 nM; under `Cc1ccc(Nc2cc(-c3ccc4cnn(C)c4c3)nc(N3CCOCC3)n2)cc1` [[6-(1-methyl(1H-indazol-6-yl))-2-morpholin-4-ylpyrimidin-4-yl](4-methylphenyl)amine], 1000 to 5000 nM.

Turning to `Cn1ncc2ccc(-c3cc(Nc4ccc(-c5ccn[nH]5)cc4)nc(N4CCOCC4)n3)cc21` [[6-(1-methyl(1H-indazol-6-yl))-2-morpholin-4-ylpyrimidin-4-yl](4-pyrazol-5-ylphenyl)amine], the IC50 is less than 500 nM. Same read-out and setting: the value for `Cn1ncc2ccc(-c3cc(Nc4ccc(-c5ccc[nH]5)cc4)nc(N4CCOCC4)n3)cc21` [[6-(1-methyl(1H-indazol-6-yl))-2-morpholin-4-ylpyrimidin-4-yl](4-pyrrol-2-ylphenyl)amine] was 1000 to 5000 nM; that for `Cn1ncc2ccc(-c3cc(Nc4ccc(-c5cc[nH]c5)cc4)nc(N4CCOCC4)n3)cc21` [[6-(1-methyl(1H-indazol-6-yl))-2-morpholin-4-ylpyrimidin-4-yl](4-pyrrol-3-ylphenyl)amine] was 500 to 1000 nM. On the same count and under the same terms, the value for `Cn1ccnc1-c1ccc(Nc2cc(-c3ccc4cnn(C)c4c3)nc(N3CCOCC3)n2)cc1` [[6-(1-methyl(1H-indazol-6-yl))-2-morpholin-4-ylpyrimidin-4-yl][4-(1-methylimidazol-2-yl)phenyl]amine] was 500 to 1000 nM. The same measure, in the same setting: under `Cn1cnc(-c2ccc(Nc3cc(-c4ccc5cnn(C)c5c4)nc(N4CCOCC4)n3)cc2)c1` [[6-(1-methyl(1H-indazol-6-yl))-2-morpholin-4-ylpyrimidin-4-yl][4-(1-methylimidazol-4-yl)phenyl]amine] stands 500 to 1000 nM; under `Cn1ccc(-c2ccc(Nc3cc(-c4ccc5cnn(C)c5c4)nc(N4CCOCC4)n3)cc2)n1` [[6-(1-methyl(1H-indazol-6-yl))-2-morpholin-4-ylpyrimidin-4-yl][4-(1-methylpyrazol-3-yl)phenyl]amine], 500 to 1000 nM. Take `Cc1c[nH]nc1-c1ccc(Nc2cc(-c3ccc4cnn(C)c4c3)nc(N3CCOCC3)n2)cc1` [[6-(1-methyl(1H-indazol-6-yl))-2-morpholin-4-ylpyrimidin-4-yl][4-(4-methylpyrazolyl)phenyl]amine]: the IC50 lay in the range of 1000 to 5000 nM. Still for that read-out and setting: the value for `Cc1nnc(-c2ccc(Nc3cc(-c4ccc5cnn(C)c5c4)nc(N4CCOCC4)n3)cc2)[nH]1` [[6-(1-methyl(1H-indazol-6-yl))-2-morpholin-4-ylpyrimidin-4-yl][4-(5-methyl(4H-1,2,4-triazol-3-yl))phenyl]amine] was less than 500 nM.
